Measured values reported in patent US20260256924A1, “INDOCYANINE GREEN (ICG) MODIFICATION FOR TREATMENT OF LIVER CANCER” (The Children's Medical Center Corporation, priority 2022, published 2026).
“Also recorded” adds a separate entry of the source. One block for each molecule: values may come before it.

Key:
FLC tumor tissue = assay: Gross and microscopic ICG localization in FLC patients (near-infrared fluorescence at surgery); type: in vivo, patient; conditions: intravenous ICG 48 hours prior to surgery, FIGS. 31A-31D
Experimental: ICG is administered several days prior to surgery, which subsequently is cleared from the blood and normal liver but is retained in tumor tissue. At the time of surgery, a near-infrared camera is used to identify ICG retaining tumor tissue since it fluoresces in response to near-infrared wave.^22,23 The use of ICG for localization of HCC and hepatoblastoma has been reported^16-18,21,22,30 however, there are no published reports regarding its use in FLC. […] The MDR3 transporter, which is responsible for export of ICG into the bile canaliculi is also expressed in tumor cells, albeit at lower levels.

Huh7 tumor cells = assay: In vivo fluorescence imaging following ICG administration in Huh7 xenograft mice; design: species or system immunodeficient mice; conditions: 0.5 mg/kg ICG dose, FIG. 32
Experimental: Other areas of high signal represents concentration within the intestinal lumen. Control mouse without tumor is shown on the left side.
Xenotransplantation of the following cell lines is performed: FLX1 (FLC), Huh-7 (HCC) and HepG2 (well-differentiated HCC) in immunodeficient mice. […] Therefore, the dose is escalated to an appropriate level. Even though the majority of the models use HCC cells, the findings are applicable to FLC since FLC also has the ability to retain ICG (FIGS. 31A-31D). Currently, there is only one readily available FLC cell line, which also has the property to be engrafted in an immunodeficient mouse model.

[1] = In vivo biodistribution of 18F-SFB-ICG in wild type mice by whole body PET/CT; design: species or system female C57BL/6 mice
Experimental: (§1) The study was comprised of female C57BL/6 mice (n=4, 20.4+0.8 g, age 12.9 weeks). The modalities were whole body PET/CT and whole blood gamma counting which were performed on the mice using the imaging agent ^18F-SFB-ICG as outlined in Table 1. Briefly, the mice were imaged in a 2-bed imaging hotel with imaging agent administered intravenously while animals were on camera (volume dosed was maintained constant to keep mass dose constant). 1 hour dynamic PET data was acquired, followed by CT. A static 30 minute PET dataset was acquired at 4 hours, also followed by CT. A blood sample was taken immediately following each imaging time point for gamma counting.
PET/CT: PET images were co-registered to CT images and resampled to uniform voxel size (0.2 mm^3). The injected activity doses were normalized to the averaged activity in the field of view (FOV) in the final 6 frames of the dynamic scan (FOV-based normalization). The Regions of Interest (ROIs) were defined using various methods in VivoQuant software: A fixed volume ellipsoidal ROI was placed in the center of the heart, to encompass a volume of representative concentration for that region. The fixed volume sphere ROIs were placed in the center of the lobes of the lungs (2), and throughout the spleen (3) to encompass a volume of representative concentration for those regions. Based on the CT and PET, the following organs were segmented as completely as possible: liver, gallbladder, small intestines, cecum, and large intestines. The activity concentration was reported as Standardized Uptake Value (SUV), equating to the […]. For fully segmented organs, uptake was also reported in percentage injected dose (% ID). FIGS. 17A-17D show resulting PET/CT images of a representative wild type mouse.

[2] = Whole blood gamma counting after 18F-SFB-ICG injection; type: in vivo, female C57BL/6 mice; conditions: FIG. 24B
Experimental: as §1
Gamma Counting: Whole blood samples were collected after each imaging session for ex vivo radioactivity analysis by gamma counting. Triplicates of ^18F-SFB-ICG were also counted to calculate an efficiency factor from which counts could be converted to units of activity (μCi). The sample activities were corrected for background radiation and decay-corrected to the injection time. The tissue volumes were estimated through measurement of sample weights, and blood activity was reported as % ID/g and SUV.

[3] = [18F]SFB-ICG stability by HPLC (RCP); type: physicochemical
Experimental: FIGS. 11A-11B show HPLC traces of [^18F]SFB-ICG stability at 1 hour, and 2 hours.

Structure (SMILES): CC1(C)C(/C=C/C=C/C=C/C=C2\N(CCCCS(=O)(=O)O)c3ccc4ccccc4c3C2(C)C)=[N+](CCCCS(=O)(=O)[O-])c2ccc3ccccc3c21 [ICG, indocyanine green]
ICG uptake/accumulation in FLC tumor tissue and metastases (FLC tumor tissue): accumulation of ICG in metastatic tumor bed; also recorded: fluorescence (white) within tumor cells; also recorded: accumulates in FLC; also recorded: ICG uptake by tumor tissue in the liver as well as metastatic deposits
uptake by implanted Huh7 tumor cells (Huh7 tumor cells): demonstrate uptake; also recorded: ICG uptake by Huh7 tumor cells

time to evidence of excretion of the tracer into the gallbladder via the biliary system ([1]; IV, wild-type mice): ≤ 20 min
time to evidence of the tracer in the lumen of the small intestine ([1]; IV, wild-type mice): ≤ 45 min
signal intensity in the liver ([1]; at 4 hours post injection): decreased significantly
tracer localization ([1]; by 5 minutes post injection): predominantly localized to the liver
percentage of injected dose localized to the cecum ([1]; cecum, at 4 hours, IV, wild-type mice): approximately 30 % ID
percentage of injected dose localized to the liver ([1]; by 10 minutes, IV, wild-type mice, FIG. 18B): ~70%
percentage of injected dose localized to the liver ([1]; by 4 hours, IV, wild-type mice): about 40 % ID
activity present in whole blood ([2]; 1 hour): 2-2.5 % ID
activity present in whole blood ([2]; 4 hours): 1 % ID
Structure (SMILES): CC1(C)C(/C=C/C=C/C=C/C=C2/N(CCCCCC(=O)NCCNC(=O)c3ccc([18F])cc3)c3ccc4ccccc4c3C2(C)C)=[N+](CCCCS(=O)(=O)[O-])c2ccc3ccccc3c21 [[^18F]ICG]
tracer localization ([1]; at 4 hours post injection): majority of the tracer is localized to the lumen of the intestines
uptake by other organs via the circulation ([1]; organs other than liver): no significant uptake by any other organs
tracer localization ([1]; time 0 post injection): localized to the heart and the major vessels

PET signal in large intestines and cecum ([1]; time activity curves, FIGS. 18A-18B): not observed until the 4 hour time point
Structure (SMILES): CC1(C)C(/C=C/C=C/C=C/C=C2/N(CCCCCC(=O)NCCNC(=O)c3ccc([18F])cc3)c3ccc4ccccc4c3C2(C)C)=[N+](CCCCS(=O)(=O)[O-])c2ccc3ccccc3c21 [^18F-SFB-ICG]
tracer localization ([1]; at 4 hours post injection): most intense signal is present within the lumen of the intestines
tracer localization ([1]; by 5 minutes post injection): majority of the tracer is localized to the liver

RCP (stability) ([3]; at 1 hour): 95%
RCP (stability) ([3]; at 2 hours): 96%
Structure (SMILES): CC1(C)C(/C=C/C=C/C=C/C=C2/N(CCCCCC(=O)NCCNC(=O)c3ccc([18F])cc3)c3ccc4ccccc4c3C2(C)C)=[N+](CCCCS(=O)(=O)[O-])c2ccc3ccccc3c21 [[^18F]SFB-ICG]
